Source: PMC5218480 (PLoS ONE, 2017)

Tested on: MV-4-11 cells
Test: Gene expression microarray analysis (Affymetrix PrimeView) and GSEA
Assay type: cell-based, human
Parameters: RFU PODN (11730768_x_at) / Fold change /veh PODN (11730768_x_at) / RFU LINC00158 (11744669_a_at) / Fold change /veh LINC00158 (11744669_a_at) / RFU DUSP10 (11751237_a_at) / Fold change /veh DUSP10 (11751237_a_at) / RFU ID3 (11757404_x_at) / Fold change /veh ID3 (11757404_x_at) / RFU PLEKHG5 (11737974_s_at) / Fold change /veh PLEKHG5 (11737974_s_at) / RFU LRRC4B (11730491_at) / Fold change /veh LRRC4B (11730491_at) / RFU GIMAP4 (11747438_a_at) / Fold change /veh GIMAP4 (11747438_a_at) / RFU KRT8 (11758183_x_at) / Fold change /veh KRT8 (11758183_x_at) / RFU CNN1 (11734310_a_at) / Fold change /veh CNN1 (11734310_a_at) / RFU VPS37D (11726825_at) / Fold change /veh VPS37D (11726825_at) / RFU C10orf10 (11716522_x_at) / Fold change /veh C10orf10 (11716522_x_at) / RFU KIR2DL2 /// KIR2DL4 /// KIR2DL5A /// KIR2DL5B /// KIR2DS1 /// KIR2DS2 /// KIR2DS3 /// KIR2DS4 /// KIR3DL3 /// KIR3DL3 /// KIR3DS1 (11738374_at) / Fold change /veh KIR2DL2 /// KIR2DL4 /// KIR2DL5A /// KIR2DL5B /// KIR2DS1 /// KIR2DS2 /// KIR2DS3 /// KIR2DS4 /// KIR3DL3 /// KIR3DL3 /// KIR3DS1 (11738374_at) / RFU C1QL1 (11718748_at) / Fold change /veh C1QL1 (11718748_at) / RFU TMPRSS4 (11747572_a_at) / Fold change /veh TMPRSS4 (11747572_a_at) / RFU HAMP (11756126_x_at) / Fold change /veh HAMP (11756126_x_at) / RFU RNFT2 (11725882_a_at) / Fold change /veh RNFT2 (11725882_a_at) / RFU NR4A2 (11747474_a_at) / Fold change /veh NR4A2 (11747474_a_at) / RFU ABCC12 (11746883_a_at) / Fold change /veh ABCC12 (11746883_a_at) / RFU TMEM136 (11760407_x_at) / Fold change /veh TMEM136 (11760407_x_at) / RFU CLDN22 /// WWC2 (11732394_at) / Fold change /veh CLDN22 /// WWC2 (11732394_at) / RFU HLA-DPB1 (11760878_x_at) / Fold change /veh HLA-DPB1 (11760878_x_at) / RFU SPINT1 (11716480_a_at) / Fold change /veh SPINT1 (11716480_a_at) / RFU GAP43 (11754022_s_at) / Fold change /veh GAP43 (11754022_s_at) / RFU A4GNT (11735810_at) / Fold change /veh A4GNT (11735810_at) / RFU PRB3 (11715151_x_at) / Fold change /veh PRB3 (11715151_x_at) / RFU TUBB4B (11761932_at) / Fold change /veh TUBB4B (11761932_at) / RFU CAPN14 (11732068_a_at) / Fold change /veh CAPN14 (11732068_a_at) / RFU TMCC2 (11721928_a_at) / Fold change /veh TMCC2 (11721928_a_at) / RFU IRGQ (11745062_a_at) / Fold change /veh IRGQ (11745062_a_at) / RFU FAM174B (11720279_a_at) / Fold change /veh FAM174B (11720279_a_at) / RFU TMPRSS4 (11748680_a_at) / Fold change /veh TMPRSS4 (11748680_a_at) / RFU FAM212B (11763350_a_at) / Fold change /veh FAM212B (11763350_a_at) / RFU PLEKHG5 (11743358_a_at) / Fold change /veh PLEKHG5 (11743358_a_at) / RFU ZSCAN30 (11745921_a_at) / Fold change /veh ZSCAN30 (11745921_a_at) / RFU CMKLR1 (11741424_a_at) / Fold change /veh CMKLR1 (11741424_a_at) / RFU LOC101060620 /// MAPK8IP1 (11723275_at) / Fold change /veh LOC101060620 /// MAPK8IP1 (11723275_at) / RFU SPTSSB (11747773_x_at) / Fold change /veh SPTSSB (11747773_x_at) / RFU PRSS12 (11739890_at) / Fold change /veh PRSS12 (11739890_at) / RFU BIN1 (11741810_x_at) / Fold change /veh BIN1 (11741810_x_at) / RFU WNT11 (11732464_a_at) / Fold change /veh WNT11 (11732464_a_at) / RFU C10orf10 (11716521_a_at) / Fold change /veh C10orf10 (11716521_a_at) / RFU C5orf56 (11738089_at) / Fold change /veh C5orf56 (11738089_at) / RFU CYB561 (11721691_x_at) / Fold change /veh CYB561 (11721691_x_at) / RFU ANKRD19P (11752326_a_at) / Fold change /veh ANKRD19P (11752326_a_at) / RFU OR2T12 /// OR2T33 /// OR2T8 (11738714_s_at) / Fold change /veh OR2T12 /// OR2T33 /// OR2T8 (11738714_s_at) / RFU VCAN (11748164_a_at) / Fold change /veh VCAN (11748164_a_at) / RFU JSRP1 (11732532_at) / Fold change /veh JSRP1 (11732532_at) / RFU KRTAP10-11 (11738290_x_at) / Fold change /veh KRTAP10-11 (11738290_x_at) / RFU MYO3A (11730013_a_at) / Fold change /veh MYO3A (11730013_a_at) / RFU EBF3 (11725865_a_at) / Fold change /veh EBF3 (11725865_a_at) / RFU CAMK2N1 (11719241_x_at) / Fold change /veh CAMK2N1 (11719241_x_at) / RFU C5orf56 (11738088_a_at) / Fold change /veh C5orf56 (11738088_a_at) / RFU OLFML3 (11715873_a_at) / Fold change /veh OLFML3 (11715873_a_at) / RFU LOC100653217 /// NTM (11731650_a_at) / Fold change /veh LOC100653217 /// NTM (11731650_a_at) / RFU MAPK11 (11762145_a_at) / Fold change /veh MAPK11 (11762145_a_at) / RFU FIZ1 (11724087_x_at) / Fold change /veh FIZ1 (11724087_x_at) / RFU OASL (11726364_x_at) / Fold change /veh OASL (11726364_x_at) / RFU SOX15 (11748057_x_at) / Fold change /veh SOX15 (11748057_x_at) / RFU CD79A (11719716_a_at) / Fold change /veh CD79A (11719716_a_at) / RFU HIST1H1D (11736915_at) / Fold change /veh HIST1H1D (11736915_at) / RFU CASKIN2 (11723855_a_at) / Fold change /veh CASKIN2 (11723855_a_at) / RFU LOC730098 (11760151_x_at) / Fold change /veh LOC730098 (11760151_x_at) / RFU OR4N2 (11742367_at) / Fold change /veh OR4N2 (11742367_at) / RFU PRRT2 (11749266_a_at) / Fold change /veh PRRT2 (11749266_a_at) / RFU SNX32 (11753110_a_at) / Fold change /veh SNX32 (11753110_a_at) / RFU CDHR5 (11726645_a_at) / Fold change /veh CDHR5 (11726645_a_at) / RFU RCAN1 (11760418_a_at) / Fold change /veh RCAN1 (11760418_a_at) / RFU FAM167A (11723789_a_at) / Fold change /veh FAM167A (11723789_a_at) / RFU FAM26E (11764081_at) / Fold change /veh FAM26E (11764081_at) / RFU ISYNA1 (11749810_s_at) / Fold change /veh ISYNA1 (11749810_s_at) / RFU ACY1 (11761880_at) / Fold change /veh ACY1 (11761880_at) / RFU 11764098_at / Fold change /veh 11764098_at / RFU SAMD14 (11745864_x_at) / Fold change /veh SAMD14 (11745864_x_at) / RFU NPB (11741838_a_at) / Fold change /veh NPB (11741838_a_at) / RFU TMPRSS6 (11731388_a_at) / Fold change /veh TMPRSS6 (11731388_a_at) / RFU KRTAP10-2 (11738614_at) / Fold change /veh KRTAP10-2 (11738614_at) / RFU ARHGAP8 /// PRR5-ARHGAP8 (11727945_x_at) / Fold change /veh ARHGAP8 /// PRR5-ARHGAP8 (11727945_x_at) / RFU KRTAP5-7 /// NADSYN1 (11734609_at) / Fold change /veh KRTAP5-7 /// NADSYN1 (11734609_at) / RFU RASL12 (11751679_a_at) / Fold change /veh RASL12 (11751679_a_at) / RFU CDKN2B (11736163_a_at) / Fold change /veh CDKN2B (11736163_a_at) / RFU PRF1 (11729649_at) / Fold change /veh PRF1 (11729649_at) / RFU, ZNF638 /// ZNF638-IT1 / Fold change vs veh, ZNF638 /// ZNF638-IT1 / RFU, PANK3 / Fold change vs veh, PANK3 / RFU, SH3YL1 / Fold change vs veh, SH3YL1 / RFU, ZEB2 / Fold change vs veh, ZEB2 / RFU, NRIP1 / Fold change vs veh, NRIP1 / RFU, PTTG1IP / Fold change vs veh, PTTG1IP / RFU, CAPN2 / Fold change vs veh, CAPN2 / RFU, MED14 / Fold change vs veh, MED14 / RFU, SNORA58 / Fold change vs veh, SNORA58 / RFU, C1orf63 / Fold change vs veh, C1orf63 / RFU, LRRFIP1 / Fold change vs veh, LRRFIP1 / RFU, NDUFAF7 / Fold change vs veh, NDUFAF7 / RFU, SLC12A2 / Fold change vs veh, SLC12A2 / RFU, IBTK / Fold change vs veh, IBTK / RFU, ESF1 / Fold change vs veh, ESF1 / Fold change vs veh, TMEM50B / RFU, TAOK1 / Fold change vs veh, TAOK1 / RFU, ACBD3 / Fold change vs veh, ACBD3 / RFU, TMA16 / Fold change vs veh, TMA16 / RFU, RWDD3 / Fold change vs veh, RWDD3 / RFU, BCAT1 / Fold change vs veh, BCAT1 / RFU, EDEM3 / Fold change vs veh, EDEM3 / RFU, TMEM33 / Fold change vs veh, TMEM33 / RFU, WDR75 / Fold change vs veh, WDR75 / RFU, AHCTF1 / Fold change vs veh, AHCTF1 / RFU, TFRC / Fold change vs veh, TFRC / RFU, ZDHHC17 / Fold change vs veh, ZDHHC17 / RFU, NOM1 / Fold change vs veh, NOM1 / RFU, ARL8B / Fold change vs veh, ARL8B / RFU, ZBTB11 / Fold change vs veh, ZBTB11 / RFU, TAMM41 / Fold change vs veh, TAMM41 / RFU, KIAA1704 /// LOC100996395 / Fold change vs veh, KIAA1704 /// LOC100996395 / RFU, ING1 / Fold change vs veh, ING1 / RFU, TRMT61B / Fold change vs veh, TRMT61B / RFU, FUBP3 / Fold change vs veh, FUBP3 / RFU, TP53 / Fold change vs veh, TP53 / RFU, TNKS2 / Fold change vs veh, TNKS2 / RFU, ZFP14 / Fold change vs veh, ZFP14 / RFU, ACTR2 / Fold change vs veh, ACTR2 / RFU, PPP3R1 / Fold change vs veh, PPP3R1 / RFU, PIK3R1 / Fold change vs veh, PIK3R1 / RFU, HNRNPA1 / Fold change vs veh, HNRNPA1 / RFU, RNF170 / Fold change vs veh, RNF170 / RFU, ZNF28 / Fold change vs veh, ZNF28 / RFU, RNGTT / Fold change vs veh, RNGTT / RFU, OGT / Fold change vs veh, OGT / RFU, BRD1 / Fold change vs veh, BRD1 / RFU, MARS / Fold change vs veh, MARS / RFU, ZNF655 / Fold change vs veh, ZNF655 / RFU, FAHD1 / Fold change vs veh, FAHD1 / RFU, BDP1 / Fold change vs veh, BDP1 / RFU, LRRCC1 / Fold change vs veh, LRRCC1 / RFU, ARID1A / Fold change vs veh, ARID1A / RFU, ZNF146 / Fold change vs veh, ZNF146 / RFU, ZNF330 / Fold change vs veh, ZNF330 / RFU, GPN3 / Fold change vs veh, GPN3 / RFU, C9orf123 / Fold change vs veh, C9orf123 / RFU, N4BP2L2 / Fold change vs veh, N4BP2L2 / RFU, ARFIP1 / Fold change vs veh, ARFIP1 / RFU, FAM179B / Fold change vs veh, FAM179B / RFU, BCL10 / Fold change vs veh, BCL10 / RFU, UHRF1BP1L / Fold change vs veh, UHRF1BP1L / RFU, BET1 / Fold change vs veh, BET1 / RFU, CNOT2 / Fold change vs veh, CNOT2 / RFU, ZNF268 / Fold change vs veh, ZNF268 / Fold change vs veh, ZNF507 / RFU, DGCR2 / Fold change vs veh, DGCR2 / RFU, WDSUB1 / Fold change vs veh, WDSUB1 / Fold change vs veh, HSP90B1 /// MIR3652 / RFU, ADSS / Fold change vs veh, ADSS / RFU, GK / Fold change vs veh, GK / RFU, ZNF148 / Fold change vs veh, ZNF148 / RFU, TAF9 / Fold change vs veh, TAF9 / RFU, SLC1A5 / Fold change vs veh, SLC1A5 / RFU, SLMO2 / Fold change vs veh, SLMO2 / RFU, ABCC4 / Fold change vs veh, ABCC4 / RFU, LOC101060439 /// RAP1B / Fold change vs veh, LOC101060439 /// RAP1B / RFU, RFX7 / Fold change vs veh, RFX7 / RFU, GTPBP10 / Fold change vs veh, GTPBP10 / RFU, CNEP1R1 / Fold change vs veh, CNEP1R1 / RFU, BIVM-ERCC5 /// ERCC5 / Fold change vs veh, BIVM-ERCC5 /// ERCC5 / RFU, ILF3 / Fold change vs veh, ILF3 / RFU 11762660_at / Fold change /veh 11762660_at / RFU VCAN (11757783_s_at) / Fold change /veh VCAN (11757783_s_at) / RFU DDX43 (11728927_at) / Fold change /veh DDX43 (11728927_at) / RFU KRT8 (11758188_x_at) / Fold change /veh KRT8 (11758188_x_at) / RFU NKD1 (11759106_at) / Fold change /veh NKD1 (11759106_at) / RFU SRD5A1 (11742802_a_at) / Fold change /veh SRD5A1 (11742802_a_at) / RFU TPSAB1 /// TPSB2 (11721975_s_at) / Fold change /veh TPSAB1 /// TPSB2 (11721975_s_at) / RFU GSTM3 (11746129_a_at) / Fold change /veh GSTM3 (11746129_a_at) / RFU IL23R (11737362_x_at) / Fold change /veh IL23R (11737362_x_at) / RFU TMEM51 (11727254_a_at) / Fold change /veh TMEM51 (11727254_a_at) / RFU PIWIL2 (11732686_x_at) / Fold change /veh PIWIL2 (11732686_x_at) / RFU ORM1 (11744905_x_at) / Fold change /veh ORM1 (11744905_x_at) / RFU CCDC152 (11743942_at) / Fold change /veh CCDC152 (11743942_at) / RFU ECM1 (11717891_a_at) / Fold change /veh ECM1 (11717891_a_at) / RFU IL23R (11748794_a_at) / Fold change /veh IL23R (11748794_a_at) / RFU TNFAIP8L3 (11732012_x_at) / Fold change /veh TNFAIP8L3 (11732012_x_at) / RFU MBOAT4 (11741988_at) / Fold change /veh MBOAT4 (11741988_at) / RFU 11764193_at / Fold change /veh 11764193_at / RFU TMEM53 (11763286_at) / Fold change /veh TMEM53 (11763286_at) / RFU MAGEB2 (11727129_at) / Fold change /veh MAGEB2 (11727129_at) / RFU TMEM200A (11744735_a_at) / Fold change /veh TMEM200A (11744735_a_at) / RFU CCDC152 (11751479_a_at) / Fold change /veh CCDC152 (11751479_a_at) / RFU FAM211A (11726209_a_at) / Fold change /veh FAM211A (11726209_a_at) / RFU RGS16 (11746705_a_at) / Fold change /veh RGS16 (11746705_a_at) / RFU VCAN (11755009_s_at) / Fold change /veh VCAN (11755009_s_at) / RFU RHOB (11743442_s_at) / Fold change /veh RHOB (11743442_s_at) / RFU RGS16 (11720943_a_at) / Fold change /veh RGS16 (11720943_a_at) / RFU RGS16 (11720944_at) / Fold change /veh RGS16 (11720944_at) / RFU, VPS4B / Fold change vs veh, VPS4B / RFU, CREB1 / Fold change vs veh, CREB1 / RFU, DNAJC13 / Fold change vs veh, DNAJC13 / RFU, GNAQ / Fold change vs veh, GNAQ / RFU, CDK5R1 / Fold change vs veh, CDK5R1 / RFU, ZRANB3 / Fold change vs veh, ZRANB3 / RFU, CUL4A / Fold change vs veh, CUL4A / RFU, CCNY / Fold change vs veh, CCNY / RFU, UFL1 / Fold change vs veh, UFL1 / RFU, COG3 / Fold change vs veh, COG3 / RFU, DIAPH2 / Fold change vs veh, DIAPH2 / RFU, SKA2 / Fold change vs veh, SKA2 / RFU, AFF3 / Fold change vs veh, AFF3 / RFU, LMF1 / Fold change vs veh, LMF1 / RFU, IPO11 / Fold change vs veh, IPO11 / RFU, DFFB / Fold change vs veh, DFFB / RFU, FOXP1 / Fold change vs veh, FOXP1 / RFU, CARD8 / Fold change vs veh, CARD8 / RFU, STRN3 / Fold change vs veh, STRN3 / RFU, ADK / Fold change vs veh, ADK / RFU, RASSF2 / Fold change vs veh, RASSF2 / RFU, WIPF1 / Fold change vs veh, WIPF1 / RFU, LARP1B / Fold change vs veh, LARP1B / RFU, RASA1 / Fold change vs veh, RASA1 / RFU, RB1 / Fold change vs veh, RB1 / RFU, PPFIA1 / Fold change vs veh, PPFIA1 / RFU, MAT2A / Fold change vs veh, MAT2A / RFU, CCT5 / Fold change vs veh, CCT5 / RFU, WDR92 / Fold change vs veh, WDR92 / RFU, CUX1 / Fold change vs veh, CUX1 / RFU, TTC7A / Fold change vs veh, TTC7A / RFU, TMEM135 / Fold change vs veh, TMEM135 / RFU, DEPTOR / Fold change vs veh, DEPTOR / RFU, CPM / Fold change vs veh, CPM / RFU, DNAJB6 / Fold change vs veh, DNAJB6 / RFU, CACNA2D3 / Fold change vs veh, CACNA2D3 / RFU, DTX4 / Fold change vs veh, DTX4 / RFU, TFCP2 / Fold change vs veh, TFCP2 / RFU, GMCL1 /// GMCL1P1 / Fold change vs veh, GMCL1 /// GMCL1P1 / RFU, AEBP2 / Fold change vs veh, AEBP2 / RFU, SNHG1 /// SNORD22 /// SNORD25 /// SNORD26 /// SNORD27 /// SNORD28 /// SNORD29 /// SNORD31 / Fold change vs veh, SNHG1 /// SNORD22 /// SNORD25 /// SNORD26 /// SNORD27 /// SNORD28 /// SNORD29 /// SNORD31 / Fold change (Aza/veh), C12orf56 (ProbeSet 11735607_a_at) / Fold change (ACY-1035/veh), C12orf56 (ProbeSet 11735607_a_at) / Fold change (Aza/veh), FGFR1OP (ProbeSet 11751329_s_at) / Fold change (ACY-1035/veh), FGFR1OP (ProbeSet 11751329_s_at) / Fold change (Aza/veh), VPS36 (ProbeSet 11739960_a_at) / Fold change (ACY-1035/veh), VPS36 (ProbeSet 11739960_a_at) / RFU SYPL1 (11715823_x_at) / Fold change /veh SYPL1 (11715823_x_at) / RFU IGFBP7 (11715501_s_at) / Fold change /veh IGFBP7 (11715501_s_at) / RFU REEP3 (11722064_at) / Fold change /veh REEP3 (11722064_at) / RFU IGLL1 (11728026_x_at) / Fold change /veh IGLL1 (11728026_x_at): dose or concentration left out as unconfirmed
Conditions: ProbeSet 11752001_a_at; LIST D

Question: How did the “Fold change vs veh, CUL4A” value turn out when Nc1ncn([C@@H]2O[C@H](CO)[C@@H](O)[C@H]2O)c(=O)n1 [azacitidine] was run?
Answer: Its value is 0.81.
